From ChEMBL document CHEMBL3706496, “Therapeutic Drugs” (1999)
Blank lines part the entries; values can stand above or below the compound they belong to.

How the values were obtained:
Format in all cases: ADME, organism-based
[1] = Percentage of administered dose recovered as idarubicinol in urine after oral administration; design: dosed compound id 2.58283e+06, dosed compound name Idarubicin, route oral; conditions: human, in vivo
[2] = Percentage of administered dose recovered as idarubicinol in urine after intravenous administration; design: dosed compound id 2.58283e+06, dosed compound name Idarubicin, route intravenous; conditions: human, in vivo
[3] = Percentage of administered dose recovered as unchanged drug in urine within 48 h of drug administration; design: dosed compound id 2.58283e+06, dosed compound name Mitoxantrone; conditions: human, read-out: Compound recovery
[4] = Percentage of administered dose recovered as unchanged drug in urine after oral administration; design: dosed compound id 2.58283e+06, dosed compound name Idarubicin, route oral; conditions: human, read-out: Compound recovery
[5] = Percentage of administered dose recovered as unchanged drug in urine after intravenous administration; design: dosed compound id 2.58283e+06, dosed compound name Idarubicin, route intravenous; conditions: human, read-out: Compound recovery
[6] = Percentage of administered dose recovered as monocarboxylic acid derivative of mitoxantrone in urine within 48 h of drug administration; design: dosed compound id 2.58283e+06, dosed compound name Mitoxantrone; conditions: human, in vivo
[7] = Percentage of administered dose recovered as dicarboxylic acid derivative of mitoxantrone in urine within 48 h of drug administration; conditions: human, in vivo

Compound recovery [1]: 5%
Compound recovery [2]: 15%
Compound: CC(O)[C@]1(O)Cc2c(O)c3c(c(O)c2[C@@H](O[C@H]2C[C@H](N)[C@H](O)[C@H](C)O2)C1)C(=O)c1ccccc1C3=O (some centres not stated)

Compound: O=C1c2c(O)ccc(O)c2C(=O)c2c(NCCNCCO)ccc(NCCNCCO)c21 [MITOXANTRONE]
dose excreted at 48 h [3]: 4.4%

dose excreted [4]: 0.6%
dose excreted [5]: 2%
Compound: CC(=O)[C@]1(O)Cc2c(O)c3c(c(O)c2[C@@H](O[C@H]2C[C@H](N)[C@H](O)[C@H](C)O2)C1)C(=O)c1ccccc1C3=O [IDARUBICIN]

Compound: O=C(O)CNCCNc1ccc(NCCNCCO)c2c1C(=O)c1c(O)ccc(O)c1C2=O
Compound recovery [6]: 0.5%

Compound: O=C(O)CNCCNc1ccc(NCCNCC(=O)O)c2c1C(=O)c1c(O)ccc(O)c1C2=O
Compound recovery [7]: 0.3%
